Measured values published in patent publication US20240246964A1 (Arbutus Biopharma Corporation, priority 2021, published 2024).

What was measured:
[1] = target: PD-L1 His protein / PD-1 Fc protein (Homo sapiens (Human), UniProt Q9NZQ7); experiment: HTRF Assay (PD-1/PD-L1 interaction); type: binding; settings: PD-L1 His 6 nM, PD-1 Fc 6 nM
human PD-L1 = human PD-L1 (Homo sapiens (Human), UniProt Q9NZQ7); experiment: T cell activation luciferase reporter cell culture system (T Cell Activation Assay); type: cell-based; settings: luciferase reporter assay; PD-L1 aAPC/CHO-K1 cells with PD-1 effector Jurkat T cells
Sequence of human PD-L1 (Q9NZQ7 19-290): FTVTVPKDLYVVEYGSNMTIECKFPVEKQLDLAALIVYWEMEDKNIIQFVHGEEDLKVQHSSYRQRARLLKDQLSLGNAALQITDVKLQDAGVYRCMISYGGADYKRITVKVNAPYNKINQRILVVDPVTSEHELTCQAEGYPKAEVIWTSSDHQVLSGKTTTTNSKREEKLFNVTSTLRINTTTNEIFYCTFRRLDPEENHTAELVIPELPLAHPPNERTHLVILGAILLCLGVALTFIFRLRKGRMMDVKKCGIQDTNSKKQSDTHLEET

Sequence of PD-L1 His protein / PD-1 Fc protein (Q9NZQ7 19-238): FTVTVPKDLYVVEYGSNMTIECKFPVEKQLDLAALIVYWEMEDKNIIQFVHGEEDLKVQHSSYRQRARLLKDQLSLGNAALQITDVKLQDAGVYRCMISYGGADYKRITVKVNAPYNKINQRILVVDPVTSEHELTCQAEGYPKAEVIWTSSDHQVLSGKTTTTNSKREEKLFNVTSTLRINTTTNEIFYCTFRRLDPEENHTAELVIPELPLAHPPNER

Row | Structure (SMILES) | IC50 [1] | EC50 (human PD-L1)
1 | COc1nc(-c2cccc(-c3ccnc(-c4ccc5c(CN6CC7(CNC(=O)C7)C6)nn(C)c5c4)c3Cl)c2Cl)ccc1CNC[C@@H]1CCC(=O)N1 [Example 288, (S)-2-((6-(3-Chloro-4-(2-chloro-3-(6-methoxy-5-((((5-oxopyrrolidin-2-yl)methyl)amino)methyl)pyridin-2-yl)phenyl)pyridin-2-yl)-1-methyl-1H-indazol-3-yl)methyl)-2,6-diazaspiro[3.4]octan-7-one] | 2.33 nM | 52.7 nM
2 | COc1nc(-c2cccc(-c3ccnc(-c4cc(Cl)c5c(c4)CCN(CC4CCN(C(C)=O)CC4)C5)c3Cl)c2Cl)ccc1CNC[C@@H]1CCC(=O)N1 [Example 289, (S)-5-((((6-(3-(2-(2-((1-Acetylpiperidin-4-yl)methyl)-8-chloro-1,2,3,4-tetrahydroisoquinolin-6-yl)-3-chloropyridin-4-yl)-2-chlorophenyl)-2-methoxypyridin-3-yl)methyl)amino)methyl)pyrrolidin-2-one] | 2.95 nM | 87.6 nM
3 | COc1cc(-c2nccc(-c3cccc(-c4cc5c(cn4)C(=O)N(CCNC[C@@H]4CCC(=O)N4)C5)c3Cl)c2Cl)ccc1CNC[C@@H]1CCC(=O)N1 [Example 290, 6-(2-Chloro-3-(3-chloro-2-(3-methoxy-4-(((((S)-5-oxopyrrolidin-2-yl)methyl)amino)methyl)phenyl)pyridin-4-yl)phenyl)-2-(2-((((S)-5-oxopyrrolidin-2-yl)methyl)amino)ethyl)-1,2-dihydro-3H-pyrrolo[3,4-c]pyridin-3-one] | 3.03 nM | 551 nM
4 | COc1cc(-c2nccc(-c3cccc(-c4cn5cc(CNC[C@@H]6CCC(=O)N6)nc5cn4)c3Cl)c2Cl)ccc1CNC[C@@H]1CCC(=O)N1 [Example 291, (S)-5-((((6-(2-Chloro-3-(3-chloro-2-(3-methoxy-4-(((((S)-5-oxopyrrolidin-2-yl)methyl)amino)methyl)phenyl)pyridin-4-yl)phenyl)imidazo[1,2-a]pyrazin-2-yl)methyl)amino)methyl)pyrrolidin-2-one] | 1.41 nM | 376 nM
5 | COc1cc(-c2nccc(-c3cccc4c3CC[C@@H]4Oc3nc(OC)c(CN4CC5(CNC(=O)C5)C4)cc3C(F)(F)F)c2Cl)ccc1CN1CC2(CNC(=O)C2)C1 [Example 292, (S)-2-(4-(3-chloro-4-(1-((6-methoxy-5-((7-oxo-2,6-diazaspiro[3.4]octan-2-yl)methyl)-3-(trifluoromethyl)pyridin-2-yl)oxy)-2,3-dihydro-1H-inden-4-yl)pyridin-2-yl)-2-methoxybenzyl)-2,6-diazaspiro[3.4]octan-7-one] | 4.4 nM | 388 nM
6 | COc1cc(-c2nccc(-c3cccc(-c4ccc(CNC[C@H](C)O)c(OC)n4)c3Cl)c2Cl)cc2c1CN(CCC(=O)O)CC2 [Example 293, (S)-3-(6-(3-Chloro-4-(2-chloro-3-(5-(((2-hydroxypropyl)amino)methyl)-6-methoxypyridin-2-yl)phenyl)pyridin-2-yl)-8-methoxy-3,4-dihydroisoquinolin-2(1H)-yl)propanoic acid] | 0.27 nM | 60.5 nM
7 | COc1cc(-c2nccc(-c3cccc(-c4ccc(CN5CC6(CNC(=O)C6)C5)c(OC)n4)c3Cl)c2Cl)cc2c1CN(CCC(=O)O)CC2 [Example 294, 3-(6-(3-Chloro-4-(2-chloro-3-(6-methoxy-5-((7-oxo-2,6-diazaspiro[3.4]octan-2-yl)methyl)pyridin-2-yl)phenyl)pyridin-2-yl)-8-methoxy-3,4-dihydroisoquinolin-2(1H)-yl)propanoic acid] | 0.24 nM | 73.9 nM
8 | COC(=O)C1(CN2CCc3cc(-c4nccc(-c5cccc(-c6ccc(CN7CC8(CNC(=O)C8)C7)c(OC)n6)c5Cl)c4Cl)cc(OC)c3C2)CC1 [Example 295, Methyl 1-((6-(3-chloro-4-(2-chloro-3-(6-methoxy-5-((7-oxo-2,6-diazaspiro [3.4]octan-2-yl)methyl)pyridin-2-yl)phenyl)pyridin-2-yl)-8-methoxy-3,4-dihydroisoquinolin-2(1H)-yl)methyl)cyclopropane-1-carboxylate] | 2.1 nM | 233 nM
9 | COc1cc(-c2nccc(-c3cccc(-c4ccc(CN5CC6(CNC(=O)C6)C5)c(OC)n4)c3Cl)c2Cl)cc2c1CN(CC(O)CF)CC2 (stereo not drawn) [Example 296, 2-((6-(2-Chloro-3-(3-chloro-2-(2-(3-fluoro-2-hydroxypropyl)-8-methoxy-1,2,3,4-tetrahydroisoquinolin-6-yl)pyridin-4-yl)phenyl)-2-methoxypyridin-3-yl)methyl)-2,6-diazaspiro[3.4]octan-7-one] | 3.3 nM | 49.8 nM
10 | COc1cc(-c2nccc(-c3cccc(-c4ccc(CN5CC6(CNC(=O)C6)C5)c(OC)n4)c3Cl)c2Cl)cc2c1CN(CC1(C(=O)O)CC1)CC2 [Example 297, 1-((6-(3-Chloro-4-(2-chloro-3-(6-methoxy-5-((7-oxo-2,6-diazaspiro[3.4]octan-2-yl)methyl)pyridin-2-yl)phenyl)pyridin-2-yl)-8-methoxy-3,4-dihydroisoquinolin-2(1H)-yl)methyl)cyclopropane-1-carboxylic acid] | 0.29 nM | 422 nM
11 | COc1cc(-c2nccc(-c3cccc(-c4ccc(CNC5CCOCC5)c(OC)n4)c3Cl)c2Cl)ccc1CNC1CCOCC1 [Example 298, N-((6-(2-chloro-3-(3-chloro-2-(3-methoxy-4-(((tetrahydro-2H-pyran-4-yl)amino)methyl)phenyl)pyridin-4-yl)phenyl)-2-methoxypyridin-3-yl)methyl)tetrahydro-2H-pyran-4-amine] | 1.78 nM | 14.6 nM
12 | COc1cc(-c2nccc(-c3cccc(-c4ccc(CNC5CCS(=O)(=O)CC5)c(OC)n4)c3Cl)c2Cl)ccc1CNC1CCS(=O)(=O)CC1 [Example 299, 4-(((6-(2-Chloro-3-(3-chloro-2-(4-(((1,1-dioxidotetrahydro-2H-thiopyran-4-yl)amino)methyl)-3-methoxyphenyl)pyridin-4-yl)phenyl)-2-methoxypyridin-3-yl)methyl)amino)tetrahydro-2H-thiopyran 1,1-dioxide] | 0.79 nM | 22.6 nM
13 | COc1cc(-c2nccc(-c3cccc(-c4ccc(CNC5CN(C(C)=O)C5)c(OC)n4)c3Cl)c2Cl)ccc1CNC1CN(C(C)=O)C1 [Example 300, 1-(3-(((6-(3-(2-(4-(((1-Acetylazetidin-3-yl)amino)methyl)-3-methoxyphenyl)-3-chloropyridin-4-yl)-2-chlorophenyl)-2-methoxypyridin-3-yl)methyl)amino)azetidin-1-yl)ethan-1-one] | 0.87 nM | 282 nM
14 | COc1cc(-c2nccc(-c3cccc(-c4ccc(CNC[C@H](C)O)c(OC)n4)c3Cl)c2Cl)ccc1CNC[C@H](C)O [Example 301, (S)-1-(((6-(2-Chloro-3-(3-chloro-2-(4-((((S)-2-hydroxypropyl)amino)methyl)-3-methoxyphenyl)pyridin-4-yl)phenyl)-2-methoxypyridin-3-yl)methyl)amino)propan-2-ol] | 0.57 nM | 19.7 nM
15 | COc1cc(-c2nccc(-c3cccc(-c4ccc(CNC5CC6(CCNC6=O)C5)c(OC)n4)c3Cl)c2Cl)ccc1CNC1CC2(CCNC2=O)C1 (stereo not drawn) [Example 302, 2-((4-(3-Chloro-4-(2-chloro-3-(6-methoxy-5-(((5-oxo-6-azaspiro[3.4]octan-2-yl)amino)methyl)pyridin-2-yl)phenyl)pyridin-2-yl)-2-methoxybenzyl)amino)-6-azaspiro[3.4]octan-5-one] | 1.11 nM | 23.5 nM
